Reference: patent publication US12509454B2, “Thiadiazolyl derivatives” (IDEAYA Biosciences, Inc., priority 2019, dated 2025)

Molecular target: Pol theta (1-899) (Homo sapiens (Human), UniProt O75417)
Test: Pol theta ATPase activity, NADH oxidation-coupled enzymatic assay
Format: biochemical
Conditions: Pol theta (1-899) 10 nM, ATP, dT50 ssDNA, absorbance 340 nm, 10-point dilution series; read-out: ATPase NADH coupling:Standard Screening:hPolQ IC50
How it was run: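 Pol theta (1-899), 10 nM, preincubated 15 min at RT with 10-point compound series in Tris pH 7.80/KCl/MgCl2 buffer, then given 100 μM ATP plus 300 nM dT50 ssDNA with PK/LDH-coupled NADH oxidation. A340 followed for 30 min; rate slopes fitted with a four-parameter model for IC50.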

Chain of Pol theta (1-899) (O75417 1-899): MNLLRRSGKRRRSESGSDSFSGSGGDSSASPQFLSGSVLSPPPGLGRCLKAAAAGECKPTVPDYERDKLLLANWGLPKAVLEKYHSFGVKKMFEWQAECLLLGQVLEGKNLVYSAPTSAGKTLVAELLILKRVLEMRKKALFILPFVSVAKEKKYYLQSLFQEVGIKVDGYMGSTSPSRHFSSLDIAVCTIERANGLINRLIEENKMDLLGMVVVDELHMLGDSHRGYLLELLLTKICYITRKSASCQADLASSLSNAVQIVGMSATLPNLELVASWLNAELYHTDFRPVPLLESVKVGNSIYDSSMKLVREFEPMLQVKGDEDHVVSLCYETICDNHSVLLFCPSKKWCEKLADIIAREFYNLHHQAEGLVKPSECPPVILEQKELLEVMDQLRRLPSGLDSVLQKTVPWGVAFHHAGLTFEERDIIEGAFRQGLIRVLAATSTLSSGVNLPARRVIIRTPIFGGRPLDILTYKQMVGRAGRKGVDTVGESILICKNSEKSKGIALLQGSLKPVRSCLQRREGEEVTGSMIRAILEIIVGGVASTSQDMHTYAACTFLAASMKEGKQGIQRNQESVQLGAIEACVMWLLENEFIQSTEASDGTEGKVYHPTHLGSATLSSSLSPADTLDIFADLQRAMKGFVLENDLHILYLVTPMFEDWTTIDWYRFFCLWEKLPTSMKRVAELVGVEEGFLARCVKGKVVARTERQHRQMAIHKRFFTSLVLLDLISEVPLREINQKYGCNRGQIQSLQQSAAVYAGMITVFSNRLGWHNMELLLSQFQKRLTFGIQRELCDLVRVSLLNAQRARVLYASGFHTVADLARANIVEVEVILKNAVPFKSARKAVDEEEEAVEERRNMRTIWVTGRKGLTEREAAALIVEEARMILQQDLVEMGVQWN

Row | Structure (SMILES) | IC50 [nM]
1 | Cc1cc(-c2cccc3c2OCCN3)c(C(=O)Nc2nnc(OCc3ccc(Cl)cn3)s2)cn1 [Example 198, N-(5-((5-chloropyridin-2-yl)methoxy)-1,3,4-thiadiazol-2-yl)-4-(3,4-dihydro-2H-benzo[b][1,4]oxazin-8-yl)-6-methylnicotinamide] | ≤ 200
2 | COc1ccccc1-c1cc(C)ncc1C(=O)Nc1nnc(OCc2cc(F)ccn2)s1 [Example 199, N-(5-((4-fluoropyridin-2-yl)methoxy)-1,3,4-thiadiazol-2-yl)-4-(2-methoxyphenyl)-6-methylnicotinamide] | 200 to 500
3 | COc1ccc(CO)cc1-c1cc(C)ncc1C(=O)Nc1nnc(OCc2ccc(Cl)cn2)s1 [Example 200, N-(5-((5-chloropyridin-2-yl)methoxy)-1,3,4-thiadiazol-2-yl)-4-(5-(hydroxymethyl)-2-methoxyphenyl)-6-methylnicotinamide] | ≤ 200
4 | COc1ccccc1-c1cc(C)ncc1C(=O)Nc1nnc(O[C@H](C)c2ccc(Cl)cc2)s1 [Example 201, N-[5-[(1R)-1-(4-chlorophenyl)ethoxy]-1,3,4-thiadiazol-2-yl]-4-(2-methoxyphenyl)-6-methylpyridine-3-carboxamide] | 500 to 1000
5 | COc1ccccc1-c1cc(C)ncc1C(=O)Nc1nnc(O[C@@H](C)c2ccc(Cl)cc2)s1 [Example 202, N-[5-[(1S)-1-(4-chlorophenyl)ethoxy]-1,3,4-thiadiazol-2-yl]-4-(2-methoxyphenyl)-6-methylpyridine-3-carboxamide] | ≤ 200
6 | Cc1cc(-c2ccccc2CO)c(C(=O)Nc2nnc(OCc3ccc(Cl)cn3)s2)cn1 [Example 203, N-[5-[(5-chloropyridin-2-yl)methoxy]-1,3,4-thiadiazol-2-yl]-4-[2-(hydroxymethyl)phenyl]-6-methylpyridine-3-carboxamide] | ≤ 200
7 | COc1ccccc1-c1cc(C)ncc1C(=O)Nc1nnc(OCc2ccc(C)cn2)s1 [Example 205, 4-(2-methoxyphenyl)-6-methyl-N-(5-((5-methylpyridin-2-yl)methoxy)-1,3,4-thiadiazol-2-yl)nicotinamide] | ≤ 200
8 | COc1cccc(F)c1-c1cc(CO)ncc1C(=O)Nc1nnc(OCc2ccc(Cl)cn2)s1 [Example 206, N-[5-[(5-chloropyridin-2-yl)methoxy]-1,3,4-thiadiazol-2-yl]-4-(2-fluoro-6-methoxyphenyl)-6-(hydroxymethyl)pyridine-3-carboxamide] | ≤ 200
9 | Cc1cc(-c2cccc3c2OC(F)(F)O3)c(C(=O)Nc2nnc(OCc3ccc(Cl)cn3)s2)cn1 [Example 208, N-(5-((5-chloropyridin-2-yl)methoxy)-1,3,4-thiadiazol-2-yl)-4-(2,2-difluorobenzo[d][1,3]dioxol-4-yl)-6-methylnicotinamide] | ≤ 200
10 | COc1ccccc1-c1cc(C)ncc1C(=O)Nc1nnc(OCc2ncccc2F)s1 [Example 210, N-[5-[(3-fluoropyridin-2-yl)methoxy]-1,3,4-thiadiazol-2-yl]-4-(2-methoxyphenyl)-6-methylpyridine-3-carboxamide] | ≤ 200
11 | COc1ccccc1-c1cc(C)ncc1C(=O)Nc1nnc(OCc2cccc(F)n2)s1 [Example 211, N-[5-[(6-fluoropyridin-2-yl)methoxy]-1,3,4-thiadiazol-2-yl]-4-(2-methoxyphenyl)-6-methylpyridine-3-carboxamide] | ≤ 200
12 | COc1ccccc1-c1cc(C)ncc1C(=O)Nc1nnc(OCc2cnc(Cl)cn2)s1 [Example 212, N-[5-[(5-chloropyrazin-2-yl)methoxy]-1,3,4-thiadiazol-2-yl]-4-(2-methoxyphenyl)-6-methylpyridine-3-carboxamide] | ≤ 200
13 | COc1ccccc1-c1cc(C)ncc1C(=O)Nc1nnc(OCc2ccc(Cl)c3[nH]ncc23)s1 [Example 213, N-[5-[(7-chloro-1H-indazol-4-yl)methoxy]-1,3,4-thiadiazol-2-yl]-4-(2-methoxyphenyl)-6-methylpyridine-3-carboxamide] | ≤ 200
14 | COc1ccccc1-c1cc(C)ncc1C(=O)Nc1nnc(OCc2ccc(C3CC3)cn2)s1 [Example 214, N-(5-((5-cyclopropylpyridin-2-yl)methoxy)-1,3,4-thiadiazol-2-yl)-4-(2-methoxyphenyl)-6-methylnicotinamide] | ≤ 200
15 | COc1cccc(F)c1-c1cc(C)ncc1C(=O)Nc1nnc(OCc2ccc(C3(C#N)CC3)cn2)s1 [Example 217, N-(5-((5-(1-cyanocyclopropyl)pyridin-2-yl)methoxy)-1,3,4-thiadiazol-2-yl)-4-(2-fluoro-6-methoxyphenyl)-6-methylnicotinamide] | ≤ 200
16 | Cc1cc(-c2ccccc2OC(F)F)c(C(=O)Nc2nnc(OCc3ccc(C4(C#N)CC4)cn3)s2)cn1 [Example 218, N-(5-[[5-(1-cyanocyclopropyl)pyridin-2-yl]methoxy]-1,3,4-thiadiazol-2-yl)-4-[2-(difluoromethoxy)phenyl]-6-methylpyridine-3-carboxamide] | ≤ 200
17 | COc1ccccc1-c1cc(C)ncc1C(=O)Nc1nnc(OCc2ccc(C#N)cn2)s1 [Example 219, N-(5-((5-cyanopyridin-2-yl)methoxy)-1,3,4-thiadiazol-2-yl)-4-(2-methoxyphenyl)-6-methylnicotinamide] | ≤ 200
18 | COc1ccccc1-c1cc(C)ncc1C(=O)Nc1nnc(OCc2ccc(C3(C#N)CC3)cn2)s1 [Example 220, N-(5-[[5-(1-cyanocyclopropyl)pyridin-2-yl]methoxy]-1,3,4-thiadiazol-2-yl)-4-(2-methoxyphenyl)-6-methylpyridine-3-carboxamide] | ≤ 200
19 | COc1ccccc1-c1cc(C)ncc1C(=O)Nc1nnc(OCc2ccc(F)cn2)s1 [Example 221, N-[5-[(5-fluoropyridin-2-yl)methoxy]-1,3,4-thiadiazol-2-yl]-4-(2-methoxyphenyl)-6-methylpyridine-3-carboxamide] | ≤ 200

Other lines, results leading:

Row | IC50 [nM] | Structure (SMILES)
20 | 1000 to 10000 | COc1ccccc1-c1cc(CN)ncc1C(=O)Nc1nnc(OCc2ccc(Cl)cn2)s1 [Example 204, 6-(aminomethyl)-N-[5-[(5-chloropyridin-2-yl)methoxy]-1,3,4-thiadiazol-2-yl]-4-(2-methoxyphenyl)pyridine-3-carboxamide]
21 | 1000 to 10000 | COc1ccccc1-c1cc(C(C)(C)O)ncc1C(=O)Nc1nnc(OCc2ccc(Cl)cn2)s1 [Example 207, N-(5-((5-chloropyridin-2-yl)methoxy)-1,3,4-thiadiazol-2-yl)-6-(2-hydroxypropan-2-yl)-4-(2-methoxyphenyl)nicotinamide]
22 | ≤ 200 | COc1ccccc1-c1cncnc1C(=O)Nc1nnc(OCc2ccc(Cl)cn2)s1 [Example 209, N-(5-((5-chloropyridin-2-yl)methoxy)-1,3,4-thiadiazol-2-yl)-5-(2-methoxyphenyl)pyrimidine-4-carboxamide]
23 | ≤ 200 | COc1ccccc1-c1c(C(=O)Nc2nnc(OCc3ccc(Cl)cn3)s2)cnc(C)c1F [Example 215, N-(5-((5-chloropyridin-2-yl)methoxy)-1,3,4-thiadiazol-2-yl)-5-fluoro-4-(2-methoxyphenyl)-6-methylnicotinamide]
24 | ≤ 200 | COc1ccccc1-c1cc(C2CC2)ncc1C(=O)Nc1nnc(OCc2ccc(Cl)cn2)s1 [Example 216, N-[5-[(5-chloropyridin-2-yl)methoxy]-1,3,4-thiadiazol-2-yl]-6-cyclopropyl-4-(2-methoxyphenyl)pyridine-3-carboxamide]
25 | ≤ 200 | COc1cc(-c2ccccc2OC)c(C(=O)Nc2nnc(OCc3ccc(Cl)cn3)s2)cn1 [Example 222, N-(5-((5-chloropyridin-2-yl)methoxy)-1,3,4-thiadiazol-2-yl)-6-methoxy-4-(2-methoxyphenyl)nicotinamide]
26 | ≤ 200 | COc1ccccc1-c1cc2cnnn2cc1C(=O)Nc1nnc(OCc2ccc(Cl)cn2)s1 [Example 223, N-[5-[(5-chloropyridin-2-yl)methoxy]-1,3,4-thiadiazol-2-yl]-5-(2-methoxyphenyl)-[1,2,3]triazolo[1,5-a]pyridine-6-carboxamide]
27 | ≤ 200 | COc1ccccc1-c1cc2cncn2cc1C(=O)Nc1nnc(OCc2ccc(Cl)cn2)s1 [Example 224, N-[5-[(5-chloropyridin-2-yl)methoxy]-1,3,4-thiadiazol-2-yl]-7-(2-methoxyphenyl)imidazo[1,5-a]pyridine-6-carboxamide]
